According to patent publication US12139520B2 (priority 2020, dated 2024):
Bridge positions count the residues as written; N and C are the ends. Square brackets hold non-standard residues; d marks the D form. Peptide text beside a SMILES is read from it. Hyp = O=C(O)[C@@H]1C[C@@H](O)CN1

Experiments:
[1] = Physical stability of peptide analogues (Thioflavin T fibrillation); type: physicochemical; conditions: maximum ThT signal normalized between hAMY maximum and buffer background; 40° C., shaking, four days; pH 7 per table title
Method in brief: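 1 h in 50 mM NaOAc pH 4 / 50 mM NaPi pH 7; + ThT 4 μM final; 40 °C, 700 rpm linear shake 5 min pre-read; ex 450, em 480 nm q10 min × 4 d; LOESS smoothing; max signal normalised to hAMY max vs buffer blank.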

hAMY3 receptor = biological target: T1, hAMY3 receptor (Homo sapiens, UniProt O60896+P30988); assay: cAMP assay for in vitro receptor activation, hAMY3-R; type: cell-based; conditions: cAMP assay, hAMY3 receptor; read-out: hAMY3R EC50
T1 sequence (P30988 25-474): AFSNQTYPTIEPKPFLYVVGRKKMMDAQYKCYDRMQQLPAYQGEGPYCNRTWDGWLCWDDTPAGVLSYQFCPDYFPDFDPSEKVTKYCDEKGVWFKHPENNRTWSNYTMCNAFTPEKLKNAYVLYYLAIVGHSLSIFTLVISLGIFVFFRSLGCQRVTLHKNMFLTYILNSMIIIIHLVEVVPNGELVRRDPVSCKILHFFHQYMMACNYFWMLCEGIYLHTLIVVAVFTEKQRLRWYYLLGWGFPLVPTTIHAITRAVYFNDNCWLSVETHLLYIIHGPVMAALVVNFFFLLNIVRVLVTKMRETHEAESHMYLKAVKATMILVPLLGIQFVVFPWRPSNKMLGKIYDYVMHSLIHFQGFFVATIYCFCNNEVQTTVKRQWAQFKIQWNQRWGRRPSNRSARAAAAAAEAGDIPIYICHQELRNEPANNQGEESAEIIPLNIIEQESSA
T1 sequence (O60896 24-148 partner): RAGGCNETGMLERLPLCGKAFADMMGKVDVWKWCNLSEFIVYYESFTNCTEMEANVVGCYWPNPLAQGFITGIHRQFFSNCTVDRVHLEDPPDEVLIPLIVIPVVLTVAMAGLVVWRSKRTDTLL
Method in brief: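 Accumulated cAMP was detected by time-resolved FRET one hour after reagent addition. Beforehand, hAMY3-R-overexpressing monoclonal cells (2000/well, DPBS, 0.05% casein, 0.5 mM IBMX) received graded doses of compound for 30 min at room temperature; human amylin served as positive control.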

| SMILES | Max ThT signal (%) [1] [%] | EC50 (hAMY3 receptor) [nM] |
| --- | --- | --- |
| CC[C@H](C)[C@H](NC(=O)[C@H](CC(N)=O)NC(=O)[C@H](CO)NC(=O)[C@H](CCCNC(=N)N)NC(=O)[C@@H]1CCCN1C(=O)[C@H](C)NC(=O)[C@@H](NC(=O)[C@H](CC(N)=O)NC(=O)[C@H](CC(=O)O)NC(=O)[C@H](CCCCN)NC(=O)[C@H](CC(=O)O)NC(=O)[C@H](CCCCN)NC(=O)[C@H](CC(=O)O)NC(=O)[C@@H](NC(=O)[C@H](Cc1ccccc1)NC(=O)[C@H](CCC(N)=O)NC(=O)[C@H](Cc1ccc(O)cc1)NC(=O)[C@@H](NC(=O)[C@H](CCC(N)=O)NC(=O)[C@H](Cc1c[nH]cn1)NC(=O)[C@H](C)NC(=O)[C@H](CC(C)C)NC(=O)[C@H](CCCNC(=N)N)NC(=O)[C@H](CCC(N)=O)NC(=O)[C@@H](NC(=O)[C@@H](NC(=O)[C@@H]1CSSC[C@H](NC(=O)CN)C(=O)N[C@@H](CCCNC(=N)N)C(=O)N[C@@H]([C@@H](C)O)C(=O)NCC(=O)N[C@@H]([C@@H](C)O)C(=O)N1)[C@@H](C)O)C(C)C)[C@@H](C)CC)[C@@H](C)O)C(C)C)C(=O)NCC(=O)N1CCC[C@H]1C(=O)N[C@@H](CCC(N)=O)C(=O)NCC(=O)N[C@@H](Cc1ccc(O)cc1)C(N)=O [compound 191] (H-GCRTGTCTVQRLAHQIYQFTDKDKDNVAPRSNIGPQGY-NH2; disulfide 2-7; N-terminus assumed) | 6.300 | 0.098 |
| CC[C@H](C)[C@H](NC(=O)[C@H](CCC(N)=O)NC(=O)[C@H](Cc1c[nH]cn1)NC(=O)[C@H](C)NC(=O)[C@H](CC(C)C)NC(=O)[C@H](CCCNC(=N)N)NC(=O)[C@H](CCC(N)=O)NC(=O)[C@@H](NC(=O)[C@@H](NC(=O)[C@@H]1CSSC[C@H](NC(=O)CN)C(=O)N[C@@H](CCCNC(=N)N)C(=O)N[C@@H](Cc2ccccc2)C(=O)NCC(=O)N[C@@H]([C@@H](C)O)C(=O)N1)[C@@H](C)O)C(C)C)C(=O)N[C@@H](Cc1ccc(O)cc1)C(=O)N[C@@H](CCC(N)=O)C(=O)N[C@@H](Cc1ccccc1)C(=O)N[C@H](C(=O)N[C@@H](CC(=O)O)C(=O)N[C@@H](CCCCN)C(=O)N[C@@H](CC(=O)O)C(=O)N[C@@H](CCCCN)C(=O)N[C@@H](CC(=O)O)C(=O)N[C@@H](CC(N)=O)C(=O)N[C@H](C(=O)N[C@@H](C)C(=O)N1CCC[C@H]1C(=O)N[C@@H](CCCNC(=N)N)C(=O)N[C@H](C(=O)N[C@@H](CC(N)=O)C(=O)N[C@H](C(=O)N[C@@H](CO)C(=O)N1CCC[C@H]1C(=O)N[C@@H](CC(N)=O)C(=O)NCC(=O)N[C@@H](Cc1ccc(O)cc1)C(N)=O)[C@@H](C)CC)[C@@H](C)O)C(C)C)[C@@H](C)O [compound 366] (H-GCRFGTCTVQRLAHQIYQFTDKDKDNVAPRTNISPNGY-NH2; disulfide 2-7; N-terminus assumed) | 3.300 | 0.013 |
| CC[C@H](C)[C@H](NC(=O)[C@H](CC(N)=O)NC(=O)[C@@H](NC(=O)[C@H](CCCNC(=N)N)NC(=O)[C@@H]1CCCN1C(=O)[C@H](C)NC(=O)[C@@H](NC(=O)[C@H](CC(N)=O)NC(=O)[C@H](CC(=O)O)NC(=O)[C@H](CCCCN)NC(=O)[C@H](CC(=O)O)NC(=O)[C@H](CCCCN)NC(=O)[C@H](CC(=O)O)NC(=O)[C@@H](NC(=O)[C@H](Cc1ccccc1)NC(=O)[C@H](CCC(N)=O)NC(=O)[C@H](Cc1ccc(O)cc1)NC(=O)[C@@H](NC(=O)[C@H](CCC(N)=O)NC(=O)[C@H](Cc1c[nH]cn1)NC(=O)[C@H](C)NC(=O)[C@H](CC(C)C)NC(=O)[C@H](Cc1c[nH]c2ccccc12)NC(=O)[C@H](CCC(N)=O)NC(=O)[C@@H](NC(=O)[C@@H](NC(=O)[C@@H]1CSSC[C@H](NC(=O)CN)C(=O)N[C@@H](CCCNC(=N)N)C(=O)N[C@@H](Cc2ccccc2)C(=O)NCC(=O)N[C@@H]([C@@H](C)O)C(=O)N1)[C@@H](C)O)C(C)C)[C@@H](C)CC)[C@@H](C)O)C(C)C)[C@@H](C)O)C(=O)NCC(=O)N1CCC[C@H]1C(=O)N[C@@H](CC(N)=O)C(=O)NCC(=O)N1C[C@H](O)C[C@H]1C(N)=O [compound 331] (H-GCRFGTCTVQWLAHQIYQFTDKDKDNVAPRTNIGPNG[Hyp]-NH2; disulfide 2-7; N-terminus assumed) | 21.150 | 0.006 |

The next lines start with the values.

| Max ThT signal (%) [1] [%] | EC50 (hAMY3 receptor) [nM] | SMILES |
| --- | --- | --- |
| 2.700 | 0.157 | CC[C@H](C)[C@H](NC(=O)[C@H](CCC(N)=O)NC(=O)[C@H](Cc1c[nH]cn1)NC(=O)[C@H](C)NC(=O)[C@H](CC(C)C)NC(=O)[C@H](CCCNC(=N)N)NC(=O)[C@H](CCC(N)=O)NC(=O)[C@@H](NC(=O)[C@@H](NC(=O)[C@@H]1CSSC[C@H](NC(=O)CN)C(=O)N[C@@H](CCCNC(=N)N)C(=O)N[C@@H]([C@@H](C)O)C(=O)NCC(=O)N[C@@H]([C@@H](C)O)C(=O)N1)[C@@H](C)O)C(C)C)C(=O)N[C@@H](Cc1ccc(O)cc1)C(=O)N[C@@H](CCC(N)=O)C(=O)N[C@@H](Cc1ccccc1)C(=O)N[C@H](C(=O)N[C@@H](CC(=O)O)C(=O)N[C@@H](CCCCN)C(=O)N[C@@H](CC(=O)O)C(=O)N[C@@H](CCCCN)C(=O)N[C@@H](CC(=O)O)C(=O)N[C@@H](CC(N)=O)C(=O)N[C@H](C(=O)N[C@@H](C)C(=O)N1CCC[C@H]1C(=O)N[C@@H](CCCNC(=N)N)C(=O)N[C@H](C(=O)N[C@@H](CC(N)=O)C(=O)N[C@H](C(=O)N[C@@H](CO)C(=O)N1CCC[C@H]1C(=O)N[C@@H](CCC(N)=O)C(=O)NCC(=O)N1C[C@H](O)C[C@H]1C(N)=O)[C@@H](C)CC)[C@@H](C)O)C(C)C)[C@@H](C)O [compound 214] (H-GCRTGTCTVQRLAHQIYQFTDKDKDNVAPRTNISPQG[Hyp]-NH2; disulfide 2-7; N-terminus assumed) |
| 3.200 | 0.036 | CC[C@H](C)[C@H](NC(=O)[C@H](CCC(N)=O)NC(=O)[C@H](Cc1c[nH]cn1)NC(=O)[C@H](C)NC(=O)[C@H](CC(C)C)NC(=O)[C@H](CCCNC(=N)N)NC(=O)[C@H](CCC(N)=O)NC(=O)[C@@H](NC(=O)[C@@H](NC(=O)[C@@H]1CSSC[C@H](NC(=O)CN)C(=O)N[C@@H](CCCNC(=N)N)C(=O)N[C@@H](Cc2ccccc2)C(=O)NCC(=O)N[C@@H]([C@@H](C)O)C(=O)N1)[C@@H](C)O)C(C)C)C(=O)N[C@@H](Cc1ccc(O)cc1)C(=O)N[C@@H](CCC(N)=O)C(=O)N[C@@H](Cc1ccccc1)C(=O)N[C@H](C(=O)N[C@@H](CC(=O)O)C(=O)N[C@@H](CCCCN)C(=O)N[C@@H](CC(=O)O)C(=O)N[C@@H](CCCCN)C(=O)N[C@@H](CC(=O)O)C(=O)N[C@@H](CC(N)=O)C(=O)N[C@H](C(=O)N[C@@H](C)C(=O)N1CCC[C@H]1C(=O)N[C@@H](CCCNC(=N)N)C(=O)N[C@H](C(=O)N[C@@H](CC(N)=O)C(=O)N[C@H](C(=O)N[C@@H](CO)C(=O)N1CCC[C@H]1C(=O)N[C@@H](CCC(N)=O)C(=O)NCC(=O)N1C[C@H](O)C[C@H]1C(N)=O)[C@@H](C)CC)[C@@H](C)O)C(C)C)[C@@H](C)O [compound 141] (H-GCRFGTCTVQRLAHQIYQFTDKDKDNVAPRTNISPQG[Hyp]-NH2; disulfide 2-7; N-terminus assumed) |
| 2.000 | 0.016 | CC[C@H](C)[C@H](NC(=O)[C@H](CCC(N)=O)NC(=O)[C@H](Cc1c[nH]cn1)NC(=O)[C@H](C)NC(=O)[C@H](CC(C)C)NC(=O)[C@H](CCCNC(=N)N)NC(=O)[C@H](CCC(N)=O)NC(=O)[C@@H](NC(=O)[C@@H](NC(=O)[C@@H]1CSSC[C@H](NC(=O)CN)C(=O)N[C@@H](CCCNC(=N)N)C(=O)N[C@@H](Cc2ccccc2)C(=O)NCC(=O)N[C@@H]([C@@H](C)O)C(=O)N1)[C@@H](C)O)C(C)C)C(=O)N[C@@H](Cc1ccc(O)cc1)C(=O)N[C@@H](CCC(N)=O)C(=O)N[C@@H](Cc1ccccc1)C(=O)N[C@H](C(=O)N[C@@H](CC(=O)O)C(=O)N[C@@H](CCCCN)C(=O)N[C@@H](CC(=O)O)C(=O)N[C@@H](CCCCN)C(=O)N[C@@H](CC(=O)O)C(=O)N[C@@H](CC(N)=O)C(=O)N[C@H](C(=O)N[C@@H](C)C(=O)N1CCC[C@H]1C(=O)N[C@@H](CCCNC(=N)N)C(=O)N[C@H](C(=O)N[C@@H](CC(N)=O)C(=O)N[C@H](C(=O)NCC(=O)N1CCC[C@H]1C(=O)N[C@@H](CC(N)=O)C(=O)NCC(=O)N1C[C@H](O)C[C@H]1C(N)=O)C(C)C)[C@@H](C)O)C(C)C)[C@@H](C)O [compound 90] (H-GCRFGTCTVQRLAHQIYQFTDKDKDNVAPRTNVGPNG[Hyp]-NH2; disulfide 2-7; N-terminus assumed) |
